According to patent publication US9624229B2, “Pyrimidine-2-amine compounds and their use as inhibitors of JAK kinases” (Rigel Pharmaceuticals, Inc., priority 2008, dated 2017):

biological target: Ba/F3 V617F cells (Homo sapiens, UniProt O60674, V617F, cells depend on it); test: Proliferation assay (Cell Titer-Glo, 72 h) utilizing Ba/F3 V617F cells; assay type: cell-based, mouse; conditions: Ba/F3 V617F cells, proliferation, level of activity given as class symbol, read-out: IC50 (the source's name)
Protocol: Ba/F3 V617F cells are maintained and plated in RPMI with 10% FBS. Plating density for these cells is 1×10^5 cells/mL.
The cells were resuspended in a corresponding medium at a required cell density (see above). 100μ of cell suspension was added to each well of a flat bottom 96 well white plate. The compound was serially diluted in DMSO from 5 mM in 3-fold dilutions, and then diluted 1:250 in the RPMI 1640 medium containing 5% FBS and pen/strep. 100 μL of resulting 2× compound solution was added per well in duplicate and the cells were allowed to proliferate for 72 hours at 37° C.
Proliferation was measured using Cell Titer-Glo. The substrate was thawed and allowed to come to ambient temperature. After removal of top 100 μL of medium from each well, 100 μL of the premixed Cell Titer-Glo reagent was added to each well. The plates were mixed on an orbital shaker for three minutes to induce lysis and incubated at ambient temperature for an additional five minutes to allow the signal to equilibrate. The Luminescence was read on the Wallac Plate Reader.
The results of the ability of the compounds of the invention to inhibit JAK2 activity, when tested in the above assay utilizing Ba/F3 V617F cells, are shown in the following Tables 2-3 wherein the level of activity (i.e., the IC50) for each compound is indicated in Tables 2-3. The compound numbers in Tables 2-3 refers to the compounds disclosed herein as being prepared by the methods disclosed herein: […]

Ba/F3 V617F cells, sequence (O60674 whole entry V617F): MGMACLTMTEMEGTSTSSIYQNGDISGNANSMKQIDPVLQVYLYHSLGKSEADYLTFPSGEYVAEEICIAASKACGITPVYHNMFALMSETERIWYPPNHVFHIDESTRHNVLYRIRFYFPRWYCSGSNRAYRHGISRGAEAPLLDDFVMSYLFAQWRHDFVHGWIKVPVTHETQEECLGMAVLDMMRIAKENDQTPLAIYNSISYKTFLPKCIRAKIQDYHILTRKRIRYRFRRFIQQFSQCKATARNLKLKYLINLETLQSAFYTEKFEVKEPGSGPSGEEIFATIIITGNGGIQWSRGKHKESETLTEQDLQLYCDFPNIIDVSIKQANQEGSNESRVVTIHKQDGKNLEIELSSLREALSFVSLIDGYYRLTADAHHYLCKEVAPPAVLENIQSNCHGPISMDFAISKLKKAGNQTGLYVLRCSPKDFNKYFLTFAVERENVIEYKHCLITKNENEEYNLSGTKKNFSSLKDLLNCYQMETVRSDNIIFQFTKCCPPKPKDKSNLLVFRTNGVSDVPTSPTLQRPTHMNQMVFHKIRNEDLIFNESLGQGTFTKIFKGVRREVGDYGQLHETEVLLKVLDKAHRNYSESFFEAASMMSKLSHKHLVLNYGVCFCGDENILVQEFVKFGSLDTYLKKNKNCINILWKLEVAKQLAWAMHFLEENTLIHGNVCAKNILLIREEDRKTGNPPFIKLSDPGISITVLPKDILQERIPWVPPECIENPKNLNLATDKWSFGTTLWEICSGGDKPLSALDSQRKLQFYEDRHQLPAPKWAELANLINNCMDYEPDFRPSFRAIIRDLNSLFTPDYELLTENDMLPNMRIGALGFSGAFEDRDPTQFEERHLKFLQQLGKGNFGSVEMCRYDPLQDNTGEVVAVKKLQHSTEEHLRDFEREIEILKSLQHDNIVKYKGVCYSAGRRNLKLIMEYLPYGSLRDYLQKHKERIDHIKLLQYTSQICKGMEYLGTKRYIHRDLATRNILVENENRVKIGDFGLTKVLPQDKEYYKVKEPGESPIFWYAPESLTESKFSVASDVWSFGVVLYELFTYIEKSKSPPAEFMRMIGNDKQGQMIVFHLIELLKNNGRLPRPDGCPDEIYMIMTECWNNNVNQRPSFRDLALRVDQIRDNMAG

GI50 [nM]	SMILES
1000 to 10000	Cc1cc(Nc2nccc(-c3ccc(N4CCOCC4)nc3)n2)ccc1N1C[C@@H]2C[C@H]1CN2C(=N)N [compound 199, 4-(6-(morpholin-4-yl)pyridin-3-yl)-N-(3-methyl-4-((1S,4S)-5-amidino-2,5-diazabicyclo[2.2.1]heptan-2-yl)phenyl)pyrimidin-2-amine]
< 1000	Cc1cc(Nc2nccc(-c3ccc(N4CCCCC4)nc3)n2)ccc1N1C[C@@H]2C[C@H]1CN2C [compound 190, 4-(6-(piperidin-1-yl)pyridin-3-yl)-N-(3-methyl-4-((1S,4S)-5-methyl-2,5-diazabicyclo[2.2.1]heptan-2-yl)phenyl)pyrimidin-2-amine]
< 1000	Cc1cc(Nc2nccc(-c3ccc(NCCC(C)(C)C)nc3)n2)ccc1N1C[C@@H]2C[C@H]1CN2C [compound 218, 4-(6-(3,3-dimethylbutyl)aminopyridin-3-yl)-N-(3-methyl-4-((1S,4S)-5-methyl-2,5-diazabicyclo[2.2.1]heptan-2-yl)phenyl)pyrimidin-2-amine]
< 1000	CN1C[C@@H]2C[C@H]1CN2c1ccc(Nc2nccc(-c3ccc4c(ccn4-c4ccncc4)c3)n2)cc1F [compound 233, 4-(1-(pyridin-4-yl)-1H-indol-5-yl)-N-(3-fluoro-4-((1S,4S)-5-methyl-2,5-diazabicyclo[2.2.1]heptan-2-yl)phenyl)pyrimidin-2-amine]
< 1000	CCCNc1ccc(-c2ccnc(Nc3ccc(N4CC5(C)CN(C)CC(C)(C4)C5)c(C)c3)n2)cn1 [compound 213, 4-(6-(propylamino)pyridin-3-yl)-N-(3-methyl-4-(1,5,7-trimethyl-3,7-diazabicyclo[3.3.1]nonan-3-yl)phenyl)pyrimidin-2-amine]

same assay, conditions: Ba/F3 V617F cells, proliferation, level of activity to inhibit JAK2, read-out: IC50 (the source's name)

GI50 [nM]	SMILES
< 1000	Cc1cc(Nc2nccc(-c3cnc4c(c3)OC(C)(C)C(=O)N4)n2)ccc1N1C[C@@H]2C[C@H]1CO2 [compound 27, 4-(2,2-dimethyl-3-oxo-3,4-dihydro-2H-pyrido[3,2-b][1,4]oxazin-7-yl)-N-(3-methyl-4-((1S,4S)-5-oxa-2-azabicyclo[2.2.1]heptan-2-yl)phenyl)pyrimidin-2-amine]
< 1000	CN1C[C@@H]2C[C@H]1CN2c1ccc(Nc2nccc(-c3ccc(NCc4ccccc4)nc3)n2)cc1F [compound 81, 4-(6-(benzylamino)pyridin-3-yl)-N-(3-fluoro-4-((1S,4S)-5-methyl-2,5-diazabicyclo[2.2.1]heptan-2-yl)phenyl)pyrimidin-2-amine]
1000 to 10000	Cc1cc(Nc2nccc(-c3ccc(N4CCOCC4)nc3)n2)ccc1N1C[C@@H]2C[C@H]1CN2CC(F)(F)F [compound 36, 4-(6-(morpholin-4-yl)pyridin-3-yl)-N-(3-methyl-4-((1S,4S)-5-(2,2,2-trifluoroethyl)-2,5-diazabicyclo[2.2.1]heptan-2-yl)phenyl)pyrimidin-2-amine]
< 1000	CN1C[C@@H]2C[C@H]1CN2c1ccc(Nc2nccc(-c3cnc4c(c3)OCCN4)n2)cc1F [compound 87, 4-(3,4-dihydro-2H-pyrido[3,2-b][1,4]oxazin-7-yl)-N-(3-fluoro-4-((1S,4S)-5-methyl-2,5-diazabicyclo[2.2.1]heptan-2-yl)phenyl)pyrimidin-2-amine]
< 1000	CCN(CC)c1nc(-c2ccnc(Nc3ccc(N4C[C@@H]5C[C@H]4CN5C)c(C)c3)n2)cs1 [compound 163, 4-(2-(diethylamino)thiazol-4-yl)-N-(3-methyl-4-((1S,4S)-5-methyl-2,5-diazabicyclo[2.2.1]heptan-2-yl)phenyl)pyrimidin-2-amine]
< 1000	CN1C[C@@H]2C[C@H]1CN2c1ccc(Nc2nccc(-c3ccc(NC4CCCCC4)nc3)n2)cc1C(F)(F)F [compound 94, 4-(6-(cyclohexylamino)pyridin-3-yl)-N-(3-trifluoromethyl-4-((1S,4S)-5-methyl-2,5-diazabicyclo[2.2.1]heptan-2-yl)phenyl)pyrimidin-2-amine]
< 1000	CCC(=O)N1C[C@@H]2C[C@H]1CN2c1ccc(Nc2nccc(-c3ccc(NC(C)=O)nc3)n2)cc1C [compound 149, 4-(6-(acetamido)pyridin-3-yl)-N-(3-methyl-4-((1S,4S)-5-ethylcarbonyl-2,5-diazabicyclo[2.2.1]heptan-2-yl)phenyl)pyrimidin-2-amine]
1000 to 10000	CNC(=O)Cc1ccc(-c2ccnc(Nc3ccc(N4C[C@@H]5C[C@H]4CN5C)c(C)c3)n2)cc1 [compound 48, 4-(4-((methyl)aminocarbonylmethyl)-phenyl)-N-(3-methyl-4-((1S,4S)-5-methyl-2,5-diazabicyclo[2.2.1]heptan-2-yl)phenyl)pyrimidin-2-amine]
< 1000	Cc1cc(Nc2nccc(-c3cnc4c(c3)OC(C)(C)C(=O)N4)n2)ccc1N1C[C@@H]2C[C@H]1CN2S(N)(=O)=O [compound 38, 4-(2,2-dimethyl-3-oxo-3,4-dihydro-2H-pyrido[3,2-b][1,4]oxazin-7-yl)-N-(3-methyl-4-((1S,4S)-5-(aminosulfonyl)-2,5-diazabicyclo[2.2.1]heptan-2-yl)phenyl)pyrimidin-2-amine]
1000 to 10000	CN1C[C@@H]2C[C@H]1CN2c1ccc(Nc2nccc(-c3cnc(N4CCOCC4)nc3)n2)cc1 [compound 40, 4-(2-(morpholin-4-yl)pyrimidin-5-yl)-N-(4-((1S,4S)-5-methyl-2,5-diazabicyclo[2.2.1]heptan-2-yl)phenyl)pyrimidin-2-amine]
1000 to 10000	Cc1cc(Nc2nccc(-c3cncc(C#N)c3)n2)ccc1N1C[C@@H]2C[C@H]1CN2C [compound 114, 4-(5-cyanopyridin-3-yl)-N-(3-methyl-4((1S,4S)-5-methyl-2,5-diazabicyclo[2.2.1]heptan-2-yl)phenyl)pyrimidin-2-amine]
< 1000	CN1C[C@@H]2C[C@H]1CN2c1ccc(Nc2nccc(-c3cnc4c(c3)OCCN4)n2)cc1C(F)(F)F [compound 98, 4-(3,4-dihydro-2H-pyrido[3,2-b][1,4]oxazin-7-yl)-N-(3-trifluoromethyl-4-((1S,4S)-5-methyl-2,5-diazabicyclo[2.2.1]heptan-2-yl)phenyl)pyrimidin-2-amine]
< 1000	Cc1cc(Nc2nccc(-c3cncc(S(C)(=O)=O)c3)n2)ccc1N1C[C@@H]2C[C@H]1CN2C [compound 95, 4-(5-(methyl)sulfonylpyridin-3-yl)-N-(3-methyl-4-((1S,4S)-5-methyl-2,5-diazabicyclo[2.2.1]heptan-2-yl)phenyl)pyrimidin-2-amine]
< 1000	CC1(C)Oc2cc(-c3ccnc(Nc4ccc(N5C[C@@H]6C[C@H]5CN6)c(C(F)(F)F)c4)n3)cnc2NC1=O [compound 172, 4-(2,2-dimethyl-3-oxo-3,4-dihydro-2H-pyrido[3,2-b][1,4]oxazin-7-yl)-N-(3-trifluoromethyl-4-((1S,4S)-2,5-diazabicyclo[2.2.1]heptan-2-yl)phenyl)pyrimidin-2-amine]
10000 to 20000	Cc1cc(Nc2nccc(-c3ccc(-c4nnn[nH]4)nc3)n2)ccc1N1C[C@@H]2C[C@H]1CN2C [compound 115, 4-(6-(1H-tetrazol-5-yl)pyridin-3-yl)-N-(3-methyl-4((1S,4S)-5-methyl-2,5-diazabicyclo[2.2.1]heptan-2-yl)phenyl)pyrimidin-2-amine]
1000 to 10000	CN1C[C@@H]2C[C@H]1CN2c1ccc(Nc2nccc(-c3ccc(NS(C)(=O)=O)nc3)n2)cc1F [compound 153, 4-(6-(methylsulfonylamino)pyridin-3-yl)-N-(3-fluoro-4-((1S,4S)-5-methyl-2,5-diazabicyclo[2.2.1]heptan-2-yl)phenyl)pyrimidin-2-amine]
1000 to 10000	Cc1cc(Nc2nccc(-c3cc[nH]c3)n2)ccc1N1C[C@@H]2C[C@H]1CN2C [compound 169, 4-(1H-pyrrol-3-yl)-N-(3-methyl-4-((1S,4S)-5-methyl-2,5-diazabicyclo[2.2.1]heptan-2-yl)phenyl)pyrimidin-2-amine]
< 1000	CN1C[C@@H]2C[C@H]1CN2c1ccc(Nc2nccc(-c3cnc(N4CCOCC4)nc3)n2)cc1F [compound 43, 4-(2-(morpholin-4-yl)pyrimidin-5-yl)-N-(3-fluoro-4-((1S,4S)-5-methyl-2,5-diazabicyclo[2.2.1]heptan-2-yl)phenyl)pyrimidin-2-amine]
< 1000	CCN1C[C@@H]2C[C@H]1CN2c1ccc(Nc2nccc(-c3cnc4c(c3)OC3(CCC3)C(=O)N4)n2)cc1C [compound 32, 4-(3′-oxo-3′,4′-dihydrospiro[cyclobutane-1,2′-pyrido[3,2-b][1,4]oxazine]-7′-yl)-N-(3-methyl-4-((1S,4S)-5-ethyl-2,5-diazabicyclo[2.2.1]heptan-2-yl)phenyl)pyrimidin-2-amine]

same assay, conditions: inhibition of JAK2 activity, proliferation of Ba/F3 V617F cells, read-out: IC50 (the source's name)

GI50 [nM]	SMILES
1000 to 10000	CC(=O)Nc1ccc(-c2ccnc(Nc3ccc(N4C[C@@H]5C[C@H]4CN5C)nc3)n2)cn1 [compound 55, 4-(6-(methylcarbonylamino)pyridin-3-yl)-N-(6-((1S,4S)-5-methyl-2,5-diazabicyclo[2.2.1]heptan-2-yl)pyridin-3-yl)pyrimidin-2-amine]
1000 to 10000	CN(C)c1ccc(-c2ccnc(Nc3ccc(N4C[C@@H]5C[C@H]4CN5C)nc3)n2)cn1 [compound 54, 4-(6-(dimethylamino)pyridin-3-yl)-N-(6-((1S,4S)-5-methyl-2,5-diazabicyclo[2.2.1]heptan-2-yl)pyridin-3-yl)pyrimidin-2-amine]
